Data published in PMC4872661 (Journal of molecular recognition : JMR, 2011).

Biological target: DAFP-1
Assay: Hummel-Dreyer size-exclusion HPLC, Klotz plot
Format: binding, Dendroides canadensis
Details: 0.10 M Na2SO4, 0.05% NaN3, 0.10 M NaPi, pH 7.00, ambient temperature; 1:1 stoichiometry

- Kd: 280 ± 20 nM
Compound: NC(=O)C1=CN([C@@H]2O[C@H](COP(=O)(O)OP(=O)(O)OC[C@H]3O[C@@H](n4cnc5c(N)ncnc54)[C@H](O)[C@@H]3O)[C@@H](O)[C@H]2O)C=CC1 [NADH, β-nicotinamide adenine dinucleotide, reduced]
